Laboratory results reported in the supplement of paper PMC10307832.

Key:
Assay in all cases: relative viability (nuclei count vs DMSO), 5 days (fraction); higher = more cells survive
NCI-H838 = test system: NCI-H838
In short: (§1)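 Nuclei were stained with Hoechst during a one-step fixation (final 0.05% Triton X-100, 1% formaldehyde, 1 ug/ml Hoechst) carried out 5 days after dosing, then counted on 4× images. The cells, lung cancer lines in 1536-well plates, had been dosed by pin tool the day after seeding with one drug alone or a fixed anchor-drug dose plus five library-drug doses (not always all listed) in √10 steps. Relative viability is the nuclei count in treated wells divided by that in vehicle wells, and each value is the median of duplicate plates.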

NCI-H2087 = test system: NCI-H2087
In short: as §1

NCI-H1993 = test system: NCI-H1993
In short: as §1

NCI-H2023 = test system: NCI-H2023
In short: as §1

EMC-BAC-2 = test system: EMC-BAC-2
In short: as §1

NCI-H1395 = test system: NCI-H1395
In short: as §1

NCI-H3122 = test system: NCI-H3122
In short: as §1

BEN = test system: BEN
In short: as §1

NCI-H2126 = test system: NCI-H2126
In short: as §1

NCI-H596 = test system: NCI-H596
In short: as §1

LOU-NH91 = test system: LOU-NH91
In short: as §1

201T = test system: 201T
In short: as §1

LCLC-103H = test system: LCLC-103H
In short: as §1

HARA = test system: HARA
In short: as §1

NCI-H522 = test system: NCI-H522
In short: as §1

HCC-44 = test system: HCC-44
In short: as §1

NCI-H441 = test system: NCI-H441
In short: as §1

NCI-H23 = test system: NCI-H23
In short: as §1

NCI-H650 = test system: NCI-H650
In short: as §1

NCI-H647 = test system: NCI-H647
In short: as §1

NCI-H727 = test system: NCI-H727
In short: as §1

NCI-H2347 = test system: NCI-H2347
In short: as §1

## O=c1cc(N2CCOCC2)oc2c(-c3cccc4c3sc3ccccc34)cccc12 + Cc1cc(Nc2cc(N3CCN(C)CC3)nc(Sc3ccc(NC(=O)C4CC4)cc3)n2)n[nH]1 [Tozasertib] (partner 0.1 µM)
NCI-H838; first compound 0.01 µM
  relative viability: 0.246
NCI-H838; first compound 0.03162 µM
  relative viability: 0.273
NCI-H838; first compound 0.1 µM
  relative viability: 0.27
NCI-H838; first compound 0.3162 µM
  relative viability: 0.298
NCI-H838; first compound 1 µM
  relative viability: 0.237
NCI-H2087; first compound 0.01 µM
  relative viability: 0.289
NCI-H2087; first compound 0.03162 µM
  relative viability: 0.247
NCI-H2087; first compound 0.1 µM
  relative viability: 0.297
NCI-H2087; first compound 0.3162 µM
  relative viability: 0.226
NCI-H2087; first compound 1 µM
  relative viability: 0.25
NCI-H1993; first compound 0.01 µM
  relative viability: 0.554
NCI-H1993; first compound 0.03162 µM
  relative viability: 0.581
NCI-H1993; first compound 0.1 µM
  relative viability: 0.569
NCI-H1993; first compound 0.3162 µM
  relative viability: 0.566
NCI-H1993; first compound 1 µM
  relative viability: 0.62
NCI-H2023; first compound 0.01 µM
  relative viability: 0.353
NCI-H2023; first compound 0.03162 µM
  relative viability: 0.402
NCI-H2023; first compound 0.1 µM
  relative viability: 0.438
NCI-H2023; first compound 0.3162 µM
  relative viability: 0.359
NCI-H2023; first compound 1 µM
  relative viability: 0.373
EMC-BAC-2; first compound 0.01 µM
  relative viability: 0.303
EMC-BAC-2; first compound 0.03162 µM
  relative viability: 0.29
EMC-BAC-2; first compound 0.1 µM
  relative viability: 0.313
EMC-BAC-2; first compound 0.3162 µM
  relative viability: 0.33
EMC-BAC-2; first compound 1 µM
  relative viability: 0.304
NCI-H1395; first compound 0.01 µM
  relative viability: 0.78
NCI-H1395; first compound 0.03162 µM
  relative viability: 0.776
NCI-H1395; first compound 0.1 µM
  relative viability: 0.659
NCI-H1395; first compound 0.3162 µM
  relative viability: 0.832
NCI-H1395; first compound 1 µM
  relative viability: 0.682
NCI-H3122; first compound 0.01 µM
  relative viability: 0.39
NCI-H3122; first compound 0.03162 µM
  relative viability: 0.418
NCI-H3122; first compound 0.1 µM
  relative viability: 0.417
NCI-H3122; first compound 0.3162 µM
  relative viability: 0.378
NCI-H3122; first compound 1 µM
  relative viability: 0.349
BEN; first compound 0.01 µM
  relative viability: 0.487
BEN; first compound 0.03162 µM
  relative viability: 0.469
BEN; first compound 0.1 µM
  relative viability: 0.482
BEN; first compound 0.3162 µM
  relative viability: 0.463
BEN; first compound 1 µM
  relative viability: 0.531
NCI-H2126; first compound 0.01 µM
  relative viability: 0.781
NCI-H2126; first compound 0.03162 µM
  relative viability: 0.839
NCI-H2126; first compound 0.1 µM
  relative viability: 0.839
NCI-H2126; first compound 0.3162 µM
  relative viability: 0.794
NCI-H2126; first compound 1 µM
  relative viability: 0.789
NCI-H596; first compound 0.01 µM
  relative viability: 0.834
NCI-H596; first compound 0.03162 µM
  relative viability: 0.939
NCI-H596; first compound 0.1 µM
  relative viability: 0.921
NCI-H596; first compound 0.3162 µM
  relative viability: 0.865
NCI-H596; first compound 1 µM
  relative viability: 1.03
LOU-NH91; first compound 0.01 µM
  relative viability: 0.642
LOU-NH91; first compound 0.03162 µM
  relative viability: 0.65
LOU-NH91; first compound 0.1 µM
  relative viability: 0.655
LOU-NH91; first compound 0.3162 µM
  relative viability: 0.697
LOU-NH91; first compound 1 µM
  relative viability: 0.65
201T; first compound 0.01 µM
  relative viability: 0.93
201T; first compound 0.03162 µM
  relative viability: 0.916
201T; first compound 0.1 µM
  relative viability: 0.983
201T; first compound 0.3162 µM
  relative viability: 0.883
201T; first compound 1 µM
  relative viability: 0.881
LCLC-103H; first compound 0.01 µM
  relative viability: 0.425
LCLC-103H; first compound 0.03162 µM
  relative viability: 0.538
LCLC-103H; first compound 0.1 µM
  relative viability: 0.485
LCLC-103H; first compound 0.3162 µM
  relative viability: 0.504
LCLC-103H; first compound 1 µM
  relative viability: 0.457
HARA; first compound 0.01 µM
  relative viability: 0.139
HARA; first compound 0.03162 µM
  relative viability: 0.139
HARA; first compound 0.1 µM
  relative viability: 0.477
HARA; first compound 0.3162 µM
  relative viability: 0.103
HARA; first compound 1 µM
  relative viability: 0.128
NCI-H522; first compound 0.01 µM
  relative viability: 0.548
NCI-H522; first compound 0.03162 µM
  relative viability: 0.607
NCI-H522; first compound 0.1 µM
  relative viability: 0.594
NCI-H522; first compound 0.3162 µM
  relative viability: 0.551
NCI-H522; first compound 1 µM
  relative viability: 0.61
HCC-44; first compound 0.01 µM
  relative viability: 0.846
HCC-44; first compound 0.03162 µM
  relative viability: 1.05
HCC-44; first compound 0.1 µM
  relative viability: 1.12
HCC-44; first compound 0.3162 µM
  relative viability: 0.876
HCC-44; first compound 1 µM
  relative viability: 0.91
NCI-H441; first compound 0.01 µM
  relative viability: 0.671
NCI-H441; first compound 0.03162 µM
  relative viability: 0.713
NCI-H441; first compound 0.1 µM
  relative viability: 0.692
NCI-H441; first compound 0.3162 µM
  relative viability: 0.658
NCI-H441; first compound 1 µM
  relative viability: 0.719
NCI-H23; first compound 0.01 µM
  relative viability: 0.363
NCI-H23; first compound 0.03162 µM
  relative viability: 0.391
NCI-H23; first compound 0.3162 µM
  relative viability: 0.31
NCI-H23; first compound 1 µM
  relative viability: 0.351
NCI-H650; first compound 0.03162 µM
  relative viability: 0.763
NCI-H650; first compound 0.1 µM
  relative viability: 0.701
NCI-H650; first compound 0.3162 µM
  relative viability: 0.803
NCI-H650; first compound 1 µM
  relative viability: 0.704
NCI-H647; first compound 0.01 µM
  relative viability: 0.369
NCI-H647; first compound 0.03162 µM
  relative viability: 0.32
NCI-H647; first compound 0.1 µM
  relative viability: 0.262
NCI-H647; first compound 0.3162 µM
  relative viability: 0.295
NCI-H647; first compound 1 µM
  relative viability: 0.226
NCI-H727; first compound 0.01 µM
  relative viability: 0.607
NCI-H727; first compound 0.03162 µM
  relative viability: 0.644
NCI-H727; first compound 0.1 µM
  relative viability: 0.673
NCI-H727; first compound 0.3162 µM
  relative viability: 0.632
NCI-H727; first compound 1 µM
  relative viability: 0.673
NCI-H2347; first compound 0.01 µM
  relative viability: 0.618
NCI-H2347; first compound 0.03162 µM
  relative viability: 0.599
NCI-H2347; first compound 0.1 µM
  relative viability: 0.538
NCI-H2347; first compound 0.3162 µM
  relative viability: 0.526
NCI-H2347; first compound 1 µM
  relative viability: 0.549
